Data: US20210113501A1, “METHOD OF ADMINISTERING BETA-HYDROXY-BETA-METHYLBUTYRATE (HMB)” (Metabolic Technologies, Inc., priority 2009, published 2021)

Assay: Study 2 hematology
Assay type: in vivo, human
Conditions: for Basophils (absolute) % Change / Basophils, % - % Change / Eosinophils (absolute) % Change / Eosinophils, % - % Change / Hematocrit % Change / Hemoglobin % Change / Lymphocytes (absolute) % Change / Lymphocytes, % - % Change / MCH % Change / MCHC % Change / MCV % Change / Monocytes (absolute) % Change / Monocytes, % - % Change / Neutrophils (absolute) % Change / Neutrophils, % - % Change / Platelets % Change / RBC % Change / RDW % Change / WBC % Change: Before to After
Procedure: Study 2 design. Study 2 was conducted similar to study 1 with the following modifications. In study 2, plasma levels of HMB were measured for 1440 min (24 h) and total urine collection was also performed for measurement of urinary HMB excretion during this period. After the 180 min blood sample, the subjects were allowed to leave the laboratory and were instructed to return to the laboratory for additional blood samples at 360, 720, and 1440 min after the ingestion of the supplement. As in study 1, each subject took each of the treatments with at least a one week washout period between treatments. Samples were again stored frozen at −70° C. for analysis of plasma and urinary HMB concentrations. Pre-ingestion, 180 min and 1440 min blood samples were again assayed for the same measurements already for study 1. Subjects were provided with a standardized lunch after the 180 min blood sampling and instructed to eat this at approximately 240 min post ingestion. Following the 720 min blood sample, subjects were instructed to eat a normal evening meal before 10 pm. Subjects reported back to the laboratory the following morning for the fasted 1440 min blood sample. A urine collection container was provided and subjects collected all urine produced during the experimental 24 h experimental period. The urine was stored refrigerated when not being collected. Urine volumes were measured and samples of the total urine collection were taken and stored frozen at −70° C. until analyzed for HMB.
The data were analyzed using a crossover design with Proc GLM in SAS. (45) For the timed sampling of plasma HMB a repeated measures polynomial model was used. The model included subject, order, and treatment main effects and time by treatment interaction where appropriate. For other parameters Proc GLM was also used with subject, order, and treatment main effects and the p values are reported for the treatment main effect. Statistical significance was determined for p<0.05 and a trend was determined for 0.05<p<0.10.

## CC(C)(O)CC(=O)[O-].CC(C)(O)CC(=O)[O-].[Ca+2] [CaHMB, calcium β-hydroxy-β-methylbutryate, reference compound]
After (24 h)
  Basophils (absolute): 0.06 ± 0.02 ×10^3/μL
  Basophils, %: 0.8 ± 0.2%
  Eosinophils (absolute): 0.2 ± 0.03 ×10^3/μL
  Eosinophils, %: 2.6 ± 0.4%
  Hematocrit: 38.3 ± 1.7%
  Hemoglobin: 13.3 ± 0.6 g/dL
  Lymphocytes (absolute): 2.8 ± 0.3 ×10^3/μL
  Lymphocytes, %: 42.5 ± 3.5%
  MCH: 30.7 ± 0.6 pg
  MCHC: 34.7 ± 0.2 g/dL
  MCV: 88.5 ± 1.4 fL
  Monocytes (absolute): 0.5 ± 0.1 ×10^3/μL
  Monocytes, %: 8.5 ± 1.5%
  Neutrophils (absolute): 3.0 ± 0.2 ×10^3/μL
  Neutrophils, %: 45.6 ± 3.3%
  Platelets: 235.9 ± 10.9 ×10^3/μL
  RBC: 4.3 ± 0.2 ×10^6/µL
  RDW: 13.4 ± 0.1%
  WBC: 6.5 ± 0.3 ×10^3/μL
Before
  Basophils (absolute): 0.06 ± 0.02 ×10^3/μL
  Basophils, %: 0.6 ± 0.2%
  Eosinophils (absolute): 0.2 ± 0.04 ×10^3/μL
  Eosinophils, %: 2.9 ± 0.5%
  Hematocrit: 38.1 ± 1.8%
  Hemoglobin: 13.2 ± 0.7 g/dL
  Lymphocytes (absolute): 3.3 ± 0.3 ×10^3/μL
  Lymphocytes, %: 44.8 ± 3.2%
  MCH: 30.6 ± 0.5 pg
  MCHC: 34.7 ± 0.2 g/dL
  MCV: 88.4 ± 1.5 fL
  Monocytes (absolute): 0.5 ± 0.1 ×10^3/μL
  Monocytes, %: 6.9 ± 0.9%
  Neutrophils (absolute): 3.3 ± 0.3 ×10^3/μL
  Neutrophils, %: 44.9 ± 3.8%
  Platelets: 228.0 ± 17.6 ×10^3/μL
  RBC: 4.3 ± 0.2 ×10^6/µL
  RDW: 13.4 ± 0.2%
  Basophils (absolute) % Change: 0.0%
  Basophils, % - % Change: 20.0%
  Eosinophils (absolute) % Change: −12.5%
  Eosinophils, % - % Change: −8.7%
  Hematocrit % Change: 0.7%
  Hemoglobin % Change: 0.7%
  Lymphocytes (absolute) % Change: −13.5%
  Lymphocytes, % - % Change: −5.0%
  MCH % Change: 0.2%
  MCHC % Change: 0.0%
  MCV % Change: 0.1%
  Monocytes (absolute) % Change: 5.0%
  Monocytes, % - % Change: 23.6%
  Neutrophils (absolute) % Change: −9.9%
  Neutrophils, % - % Change: 1.7%
  Platelets % Change: 3.5%
  RBC % Change: 0.7%
  RDW % Change: −0.1%
  WBC % Change: −10.5%

## CC(C)(O)CC(=O)O [HMB-Acid Gel Swallow, 3-hydroxy-3-methylbutyric acid]
After (24 h)
  Basophils (absolute): 0.09 ± 0.03 ×10^3/μL
  Basophils, %: 0.9 ± 0.3%
  Eosinophils (absolute): 0.2 ± 0.04 ×10^3/μL
  Eosinophils, %: 3.0 ± 0.5%
  Hematocrit: 38.9 ± 1.1%
  Hemoglobin: 13.4 ± 0.4 g/dL
  Lymphocytes (absolute): 3.1 ± 0.3 ×10^3/μL
  Lymphocytes, %: 43.3 ± 3.9%
  MCH: 30.5 ± 0.6 pg
  MCHC: 34.5 ± 0.2 g/dL
  MCV: 88.6 ± 1.5 fL
  Monocytes (absolute): 0.5 ± 0.04 ×10^3/μL
  Monocytes, %: 6.9 ± 0.8%
  Neutrophils (absolute): 3.3 ± 0.4 ×10^3/μL
  Neutrophils, %: 46.0 ± 4.4%
  Platelets: 242.4 ± 12.2 ×10^3/μL
  RBC: 4.4 ± 0.1 ×10^6/µL
  RDW: 13.2 ± 0.2%
  WBC: 7.1 ± 0.3 ×10^3/μL
Before
  Basophils (absolute): 0.05 ± 0.02 ×10^3/μL
  Basophils, %: 0.5 ± 0.2%
  Eosinophils (absolute): 0.2 ± 0.03 ×10^3/μL
  Eosinophils, %: 2.8 ± 0.5%
  Hematocrit: 37.4 ± 1.0%
  Hemoglobin: 13.0 ± 0.4 g/dL
  Lymphocytes (absolute): 2.8 ± 0.2 ×10^3/μL
  Lymphocytes, %: 43.6 ± 2.4%
  MCH: 30.6 ± 0.6 pg
  MCHC: 34.8 ± 0.2 g/dL
  MCV: 88.1 ± 1.5 fL
  Monocytes (absolute): 0.5 ± 0.1 ×10^3/μL
  Monocytes, %: 7.5 ± 1.1%
  Neutrophils (absolute): 2.9 ± 0.2 ×10^3/μL
  Neutrophils, %: 45.6 ± 2.7%
  Platelets: 229.0 ± 12.9 ×10^3/μL
  RBC: 4.2 ± 0.1 ×10^6/µL
  RDW: 13.3 ± 0.2%
  WBC: 6.4 ± 0.3 ×10^3/μL
  Basophils (absolute) % Change: 75.0%
  Basophils, % - % Change: 75.0%
  Eosinophils (absolute) % Change: 13.3%
  Eosinophils, % - % Change: 9.1%
  Hematocrit % Change: 4.2%
  Hemoglobin % Change: 3.2%
  Lymphocytes (absolute) % Change: 9.4%
  Lymphocytes, % - % Change: −0.9%
  MCH % Change: −0.3%
  MCHC % Change: −0.8%
  MCV % Change: 0.6%
  Monocytes (absolute) % Change: 2.6%
  Monocytes, % - % Change: −8.3%
  Neutrophils (absolute) % Change: 10.6%
  Neutrophils, % - % Change: 0.8%
  Platelets % Change: 5.8%
  RBC % Change: 3.5%
  RDW % Change: −0.5%
  WBC % Change: 9.7%

## CC(C)(O)CC(=O)O [HMB-Acid Gel Sublingual, 3-hydroxy-3-methylbutyric acid]
After (24 h)
  Basophils (absolute): 0.04 ± 0.0 ×10^3/μL
  Basophils, %: 0.4 ± 0.2%
  Eosinophils (absolute): 0.2 ± 0.03 ×10^3/μL
  Eosinophils, %: 3.3 ± 0.5%
  Hematocrit: 38.6 ± 1.3%
  Hemoglobin: 13.2 ± 0.5 g/dL
  Lymphocytes (absolute): 3.1 ± 0.3 ×10^3/μL
  Lymphocytes, %: 45.6 ± 3.4%
  MCH: 30.5 ± 0.5 pg
  MCHC: 34.5 ± 0.2 g/dL
  MCV: 89.3 ± 1.4 fL
  Monocytes (absolute): 0.6 ± 0.05 ×10^3/μL
  Monocytes, %: 8.4 ± 0.9%
  Neutrophils (absolute): 2.9 ± 0.3 ×10^3/μL
  Neutrophils, %: 42.4 ± 3.5%
  Platelets: 244.3 ± 17.5 ×10^3/μL
  RBC: 4.3 ± 0.1 ×10^6/µL
  RDW: 13.4 ± 0.2%
  WBC: 6.8 ± 0.3 ×10^3/μL
Before
  Basophils (absolute): 0.06 ± 0.02 ×10^3/μL
  Basophils, %: 0.6 ± 0.2%
  Eosinophils (absolute): 0.2 ± 0.04 ×10^3/μL
  Eosinophils, %: 2.5 ± 0.5%
  Hematocrit: 37.5 ± 1.4%
  Hemoglobin: 13.2 ± 0.5 g/dL
  Lymphocytes (absolute): 3.0 ± 0.3 ×10^3/μL
  Lymphocytes, %: 43.1 ± 4.2%
  MCH: 30.4 ± 0.5 pg
  MCHC: 34.5 ± 0.2 g/dL
  MCV: 88.4 ± 1.5 fL
  Monocytes (absolute): 0.6 ± 0.05 ×10^3/μL
  Monocytes, %: 8.3 ± 1.0%
  Neutrophils (absolute): 3.3 ± 0.5 ×10^3/μL
  Neutrophils, %: 45.3 ± 5.2%
  Platelets: 233.8 ± 14.2 ×10^3/μL
  RBC: 4.3 ± 0.1 ×10^6/µL
  RDW: 13.3 ± 0.2%
  WBC: 7.1 ± 0.4 ×10^3/μL
  Basophils (absolute) % Change: −40.0%
  Basophils, % - % Change: −40.0%
  Eosinophils (absolute) % Change: 35.7%
  Eosinophils, % - % Change: 30.0%
  Hematocrit % Change: 2.9%
  Hemoglobin % Change: 0.4%
  Lymphocytes (absolute) % Change: 5.0%
  Lymphocytes, % - % Change: 5.8%
  MCH % Change: 0.3%
  MCHC % Change: 0.1%
  MCV % Change: 1.0%
  Monocytes (absolute) % Change: 0.0%
  Monocytes, % - % Change: 1.5%
  Neutrophils (absolute) % Change: −12.1%
  Neutrophils, % - % Change: −6.4%
  Platelets % Change: 4.5%
  RBC % Change: 0.1%
  RDW % Change: 0.7%
  WBC % Change: −3.5%
